{"source": "patent US20150148235A1", "about": "“HERBICIDE-RESISTANT SUNFLOWER PLANTS WITH MULTIPLE HERBICIDE RESISTANT ALLELES OF AHASL1 AND METHODS OF USE” (NIDERA S.A., priority 2013, published 2015)", "tested_on": "sunflower lines (WT, A122T/A122T, A122T/P197L, P197L/P197L)", "experiment": "Greenhouse whole-plant response to metsulfuron methyl, Example 5", "assay_type": "in vivo, Helianthus annuus", "details": "14 DAT", "experimental": "Seeds were sown in Petri dishes and, after germination, plantlets were transplanted into 10 cm pots containing potting media consisting of equal parts of vermiculite, soil, and sand. Plants were grown in the greenhouse under natural light conditions supplemented with 400 W sodium halide lamps to provide a 16 hr daylength. Day/night temperatures were 25 and 20° C., respectively. At the V2-V4 stage (Schneiter & Miller, 1981) 20 plants of each genotype were randomly assigned to each treatment consisting of three metsulfuron methyl doses (0 or no treatment, 5 g ai/ha or a 1× rate, and 10 g ai/ha or a 2× rate). A zero-time biomass determination was also conducted. The experiment was arranged as a randomized complete block design (RCBD) with a full factorial arrangement of treatments and 20 replications (sunflower line×treatment).\nFor the zero-time dried weight determination, ten plants of each genotype were cut at the cotyledonal node on the day of herbicide application and dried at 60° C. for 48 hr. The rest of the plants were maintained for 14 days after herbicide treatment (DAT) and their height, Phytotoxicity Index (PI) and above ground dry biomass were recorded. Height was determined as the distance between the cotyledonal node and the apex of each plant. The above ground biomass data for each line was converted to biomass accumulation after application by subtracting the appropriate average zero-time biomass from each sample. Height and dry biomass were converted to a percentage of the untreated control for each line to allow direct comparisons between groups.\nThe data was subjected to an ANOVA and the means were compared by an LSD test.", "key": {"[1]": {"details": "BTSu-R1 (P197L/P197L), 1X (5 g ai./ha)"}, "[2]": {"details": "BTSu-R1 (P197L/P197L), 2X (10 g ai./ha)"}, "[3]": {"details": "GM40 (A122T/A122T), 1X (5 g ai./ha)"}, "[4]": {"details": "GM40 (A122T/A122T), 2X (10 g ai./ha)"}, "[5]": {"details": "GM1606 (A122T/A122T), 1X (5 g ai./ha)"}, "[6]": {"details": "GM1606 (A122T/A122T), 2X (10 g ai./ha)"}, "[7]": {"details": "L4 (A122T/A122T), 1X (5 g ai./ha)"}, "[8]": {"details": "L4 (A122T/A122T), 2X (10 g ai./ha)"}, "[9]": {"details": "cmsGM40xBTSu-R1 (A122T/P197L), 1X (5 g ai./ha)"}, "[10]": {"details": "cmsGM40xBTSu-R1 (A122T/P197L), 2X (10 g ai./ha)"}, "[11]": {"details": "cmsGM40xL4 (A122T/A122T), 1X (5 g ai./ha)"}, "[12]": {"details": "cmsGM40xL4 (A122T/A122T), 2X (10 g ai./ha)"}}, "note": "Several values for one entry are separate records, joined by “and”; a condition that tells them apart may be missing. Equal entries are not always repeated. Marks after values point to notes of the source that are not given here."}
{"molecule": "COC(=O)c1ccccc1S(=O)(=O)NC(=O)Nc1nc(C)nc(OC)n1", "note": "[metsulfuron]", "values": [{"measurement": "Dry Matter accumulation (DMA)", "setting": "B770 (WT), 1X (5 g ai./ha)", "value": "28.43^b %"}, {"measurement": "Phytotoxicity Index (PI) (scale 0-9)", "setting": "B770 (WT), 1X (5 g ai./ha)", "value": "8.50^bc"}, {"measurement": "Dry Matter accumulation (DMA)", "setting": "B770 (WT), 2X (10 g ai./ha)", "value": "28.77^b %"}, {"measurement": "Mean Height Reduction (PH)", "setting": "B770 (WT), 2X (10 g ai./ha)", "value": "18.20^a %"}, {"measurement": "Phytotoxicity Index (PI) (scale 0-9)", "setting": "B770 (WT), 2X (10 g ai./ha)", "value": "9.00^d"}, {"measurement": "Dry Matter accumulation (DMA)", "setting": "[1]", "value": "88% and 88.1% and 88.10^d %"}, {"measurement": "Mean Height Reduction (PH)", "setting": "[1]", "value": "79.01^b %"}, {"measurement": "Dry Matter accumulation (DMA)", "setting": "[2]", "value": "77% and 76.69^c %"}, {"measurement": "Mean Height Reduction (PH)", "setting": "[2]", "value": "80.85^c %"}, {"measurement": "Dry Matter accumulation (DMA)", "setting": "[3]", "value": "25.73^ab %"}, {"measurement": "Mean Height Reduction (PH)", "setting": "[3]", "value": "21.39^a %"}, {"measurement": "Phytotoxicity Index (PI) (scale 0-9)", "setting": "[3]", "value": "9.00^d"}, {"measurement": "Dry Matter accumulation (DMA)", "setting": "[4]", "value": "20.69^a %"}, {"measurement": "Mean Height Reduction (PH)", "setting": "[4]", "value": "21.17^a %"}, {"measurement": "Phytotoxicity Index (PI) (scale 0-9)", "setting": "[4]", "value": "9.00^d"}, {"measurement": "Dry Matter accumulation (DMA)", "setting": "[5]", "value": "30.39^b %"}, {"measurement": "Mean Height Reduction (PH)", "setting": "[5]", "value": "21.55^a %"}, {"measurement": "Phytotoxicity Index (PI) (scale 0-9)", "setting": "[5]", "value": "8.70^d"}, {"measurement": "Dry Matter accumulation (DMA)", "setting": "[6]", "value": "20.45^a %"}, {"measurement": "Mean Height Reduction (PH)", "setting": "[6]", "value": "21.70^a %"}, {"measurement": "Phytotoxicity Index (PI) (scale 0-9)", "setting": "[6]", "value": "9.00^d"}, {"measurement": "Dry Matter accumulation (DMA)", "setting": "[7]", "value": "25.40^ab %"}, {"measurement": "Mean Height Reduction (PH)", "setting": "[7]", "value": "19.47^a %"}, {"measurement": "Phytotoxicity Index (PI) (scale 0-9)", "setting": "[7]", "value": "8.25^b"}, {"measurement": "Dry Matter accumulation (DMA)", "setting": "[8]", "value": "18.80^a %"}, {"measurement": "Mean Height Reduction (PH)", "setting": "[8]", "value": "18.73^a %"}, {"measurement": "Phytotoxicity Index (PI) (scale 0-9)", "setting": "[8]", "value": "8.5^c"}, {"measurement": "Dry Matter accumulation (DMA)", "setting": "[9]", "value": "74.4% and 74.36^c %"}, {"measurement": "Mean Height Reduction (PH)", "setting": "[9]", "value": "77.04^b %"}, {"measurement": "Phytotoxicity Index (PI) (scale 0-9)", "setting": "[9]", "value": "0.00^a"}, {"measurement": "Dry Matter accumulation (DMA)", "setting": "[10]", "value": "72.66^c %"}, {"measurement": "Mean Height Reduction (PH)", "setting": "[10]", "value": "62% and 61.99^b %"}, {"measurement": "Dry Matter accumulation (DMA)", "setting": "[11]", "value": "19.90^a %"}, {"measurement": "Mean Height Reduction (PH)", "setting": "[11]", "value": "22.45^a %"}, {"measurement": "Phytotoxicity Index (PI) (scale 0-9)", "setting": "[11]", "value": "8.67 ^d"}, {"measurement": "Dry Matter accumulation (DMA)", "setting": "[12]", "value": "18.23^a %"}, {"measurement": "Mean Height Reduction (PH)", "setting": "[12]", "value": "20.56^a %"}, {"measurement": "Phytotoxicity Index (PI) (scale 0-9)", "setting": "[12]", "value": "8.82^cd"}]}
